# Source: patent publication US4418068A, “Antiestrogenic and antiandrugenic benzothiophenes” (Eli Lilly and Company, priority 1981, dated 1983)
# How the values were obtained:
# [1] = tested on: estrogenic response of estradiol; assay: Antiestrogenic Test, immature mice (uterine weight); assay type: in vivo; details: Experiment B, s.c. + estradiol 0.3 mcg.
# Procedure: This test was conducted with immature 40-45 g. female rats, immature 11-13 g. mice, and adult ovariectomized mice. The rats were tested in groups of six, and mice in groups of ten. All of the laboratory animals were from standardized strains and were equilibrated to the laboratory before the test started. Each test was begun by administering the test compound daily for three days, as a subcutaneous injection or by oral gavage, as indicated below in the reports of individual experiments.
# The test animals were treated for three days and sacrificed on the fourth day, and the uteri were removed, freed of extraneous tissue, and blotted with paper towels. The uteri were weighed to the nearest 0.1 mg.
# The uterine weights are given, in mg., as the means of all of the organ weights of the animals in a group. Compounds are referred to by their example numbers above.
# The same standardized types of laboratory animals which were used in the experiments described above were also used in these experiments. […] Untreated control animals were used in each experiment. […] The dosage and sacrifice schedule, and the method of determining uterine weights and reporting data, were the same as the methods described above under Test 1.
# estrogenic response = assay: Regression Test: reversal of established estrogenic response (uterine weight); assay type: in vivo, immature rats; details: estradiol 0.1 mcg./day 3 days
# Procedure: The following test was carried out to determine if the compounds of this invention could reverse an estrogenic response, when administration of the compound was started after the estrogenic response had become established.
# The test animals were immature rats, and all administrations were by subcutaneous injection.
# The mean uterine weights of these groups of animals, respectively, were 97.9, 97.3, 119.9 and 112.3 mg.
# The animals were sacrificed on the fifth day and their mean uterine weight was 56.4 mg.
# The animals were sacrificed on the seventh day and their mean uterine weight was 57.0 mg.
# [2] = tested on: DMBA-induced mammary tumors; assay: Tests Against DMBA-Induced mammary tumors; assay type: in vivo, adult female virgin rats
# Excerpt: Mammary tumors were induced in adult female virgin rats by a single 20-mg. oral dose of 7,12-dimethylbenzanthracene. Within about six weeks, visible and palpable tumors were present in the mammary tissue of the rats, and the rats were allocated into treatment and control groups in such a way that each group contained animals having approximately the same size and number of tumors. The size of the tumors was estimated by measuring their cross-sectional area. […]
# […] The treated animals received 1 mg./kg. per day of 6-methoxy-2-(4-hydroxyphenyl)-3-[4-(2-piperidinoethoxy)benzoyl]benzo[b]thiophene, hydrochloride, as a subcutaneous injection in corn oil. The animals were not ovariectomized at the end of the experiment.
# [3] = tested on: androgen-stimulated prostate growth; assay: Anti-Androgen Test, immature male rats (ventral prostate weight); assay type: in vivo
# Procedure: The animals used in this test were adult male rats having a body weight which averaged about 330 g. when the experiment ended. All of the animals to be used in the experiment were castrated by the scrotal route, and were held untreated for 3 days. On the fourth day, subcutaneous administration of 0.1 mg./day of an exogenous androgen, testosterone propionate, was begun, and was continued for seven consecutive days. An untreated control group of animals received injections of 0.1 ml./day of corn oil as a blank treatment. The compound of this invention was administered orally or subcutaneously to the treated animals in 0.1 ml. of corn oil, at the same time that the androgen was administered. The animals were sacrificed 24 hours after the last injection of testosterone propionate, the ventral prostate glands were removed and weighed, and the mean of the weights of each treatment group was reported.
# This experiment was carried out in the same manner as Experiment A above, except that the test animals were immature male rats, weighing about 120 g. each at sacrifice. Each treatment group consisted of six or seven animals. All treatments in this experiment were administered by subcutaneous injection. The amount of the androgen administered was only 20 mcg./day because of the small size of the animals.
# This experiment was also conducted in immature rats having average body weight of about 115 g. when the experiment ended. In other respects, the experiment was as described under Experiment B above. The treatment groups consisted of ten animals each, except for the androgen only group, of 16 animals, and the 5 mg./kg. group, of nine animals.
# [4] = Experiment B, 20 mg./kg./day, orally, four weeks
# [5] = Experiment C, low dose 20 mg./kg./day, four weeks
smiles,measurement,setting,value
"O=C(c1ccc(OCCN2CCCCC2)cc1)c1c(-c2ccc(O)cc2)sc2cc(O)ccc12 [Example 3, 6-hydroxy-2-(4-hydroxyphenyl)-3-[4-(2-piperidinoethoxy)benzoyl]benzo[b]thiophene]",Uterine weight,[1]; 3 mg.,13.9 mg
same,Uterine weight,[1]; 0.03 mcg.,41.3 mg
same,Uterine weight,[1]; 0.3 mcg.,40.6 mg
same,Uterine weight,[1]; 3 mcg.,26.5 mg
same,Uterine weight,[1]; 30 mcg.,18.9 mg
same,Uterine weight,[1]; 300 mcg.,14.6 mg
same,mean uterine weight,"estrogenic response; then estradiol + 1 mg. compound s.c. on following five days, sacrificed ninth day",50.7 mg
same,mean uterine weight,"estrogenic response; then estradiol + 1 mg. compound s.c. on following three days, sacrificed seventh day",57.0 mg
same,mean uterine weight,"estrogenic response; then estradiol + 1 mg. compound s.c. on fourth day, sacrificed fifth day",56.4 mg
same,average total cross-sectional area of tumor,"[2]; Experiment A, oral 0.1, 5, 10, 20 mg./kg./day in successive two-week periods, 8 weeks",345 square millimeters
same,"total cross-sectional area of tumor, lower end of range","[2]; Experiment A, oral, 8 weeks",complete regression
same,"total cross-sectional area of tumor, upper end of range","[2]; Experiment A, oral, 8 weeks, one animal, tumors not estrogen-dependent",≤ 1550 sq. mm.
same,animals with completely regressed tumors,[2]; [4],one of the compound-treated animals had completely regressed
same,average total tumor area,[2]; [4],152 square millimeters
same,growth of the large tumor (668 square millimeters),"[2]; Experiment B, 20 mg./kg./day, orally, since second week, shrank after ovariectomy","its growth had been checked, and it had not significantly grown"
same,average tumor area,"[2]; Experiment C, high dose 40 mg./kg./day, four weeks",304 square millimeters
same,average cross-sectional tumor area,[2]; [5],441 square millimeters
same,"tumor area, lower end of range",[2]; [5],no tumors present
same,"tumor area, upper end of range",[2]; [5],≤ 1907 square millimeters
same,Mean Prostate Weight,"[3]; Experiment B, 0.5 mg./kg./day s.c. + androgen 20 mcg./day",33.8 mg
same,"average prostate weight, one animal excluded","[3]; Experiment B, 0.5 mg./kg./day s.c. + androgen, animal with 54 mg. prostate excluded",30.5
same,Mean Prostate Weight,"[3]; Experiment B, 5 mg./kg./day s.c. + androgen 20 mcg./day",36.6 mg
same,Mean Prostate Weight,"[3]; Experiment C, 0.05 mg./kg./day s.c. + androgen",34.0 mg
same,Mean Prostate Weight,"[3]; Experiment C, 0.5 mg./kg./day s.c. + androgen",31.1 mg
same,Mean Prostate Weight,"[3]; Experiment C, 5 mg./kg./day s.c. + androgen",29.0 mg
